This passage reports MIC results from patent publication US20080249033A1, “Carbamate Linked Macrolides Useful For The Treatment Of Microbial Infections” (priority 2004, published 2008).

Holding throughout (format): cell-based
One assay has as its system S. pneumoniae 0541. In words: MIC, microtiter broth serial dilution test. To be noted: Streptococcus pneumoniae.
The test system of assay [1] is erythromycin resistant strains of Streptococcus pneumoniae. In words: MIC, erythromycin resistant strains.
The next assay relates to S. pyogenes 0542. Kind of assay: MIC, microtiter broth serial dilution test. To be noted: Streptococcus pyogenes.
In the next assay the test system is E. faecalis ATCC 0004. Kind of assay: MIC, microtiter broth serial dilution test. To be noted: Enterococcus faecalis, ATCC0004.
In assay [2] the test system is erythromycin resistant strains of Streptococcus pyogenes. In words: MIC, erythromycin resistant strains.
Assay [3] concerns S. aureus Smith ATCC 0329. Kind of assay: MIC, microtiter broth serial dilution test. Particulars: Staphylococcus aureus, ATCC0329.
The test system of a further assay is H. influenzae ATCC 0529. In words: MIC, microtiter broth serial dilution test. To be noted: Haemophilus influenzae, ATCC0529.
For the next assay, the system named is M. catarrhalis ATCC 0324. Kind of assay: MIC, microtiter broth serial dilution test. Particulars: Moraxella catarrhalis, ATCC0324.

Regarding `CC[C@H]1OC(=O)[C@H](C)[C@@H](OC2C[C@@](C)(OC)[C@@H](OC(=O)NCCOCCOCCNc3cc4c(=O)c(C(=O)O)cn(C5CC5)c4cc3Cl)[C@H](C)O2)[C@H](C)[C@@H](OC2O[C@H](C)C[C@H](N(C)C)[C@H]2O)[C@](C)(OC)C[C@@H](C)C(=O)[C@H](C)[C@@H](O)[C@]1(C)O` (some centres unmarked) [Example 1, 4″-O-2-{2-[2-(3-Carboxy-7-chloro-1-cyclopropyl-4-oxo-1,4-dihydro-quinolin-6-ylamino)-ethoxy]-ethoxy}-ethylcarbamoyl-6-O-methyl erythromycin A], the MIC (against S. pneumoniae 0541; in assay [1]; against S. pyogenes 0542; against E. faecalis ATCC 0004; in assay [2]; in assay [3]) was ≤ 0.125 µg/mL in each case. In addition, the MIC in the assay with H. influenzae ATCC 0529 is ≤ 2 µg/mL.

`CC[C@H]1OC(=O)[C@H](C)[C@@H](OC2C[C@@](C)(OC)[C@H](OC(=O)NCCOCCOCCNc3cc4c(=O)c(C(=O)O)cn(C5CC5)c4cc3Cl)[C@@H](C)O2)[C@H](C)[C@@H](O[C@@H]2O[C@H](C)CC(N(C)C)[C@H]2O)[C@](C)(O)C[C@@H](C)CN(C)[C@H](C)[C@@H](O)[C@]1(C)O` (some centres unmarked) [Example 2, 4″-O-2-{2-[2-(3-Carboxy-7-chloro-1-cyclopropyl-4-oxo-1,4-dihydro-quinolin-6-ylamino)-ethoxy]-ethoxy}-ethylcarbamoyl-azithromycin]: the MIC (against S. pneumoniae 0541; in assay [1]; in the assay with S. pyogenes 0542; in the assay with E. faecalis ATCC 0004; in assay [2]; in assay [3]) was ≤ 0.125 µg/mL throughout. Besides, in the assay on H. influenzae ATCC 0529, the MIC was ≤ 2 µg/mL.

Take `CC[C@H]1OC(=O)[C@H](C)[C@@H](O[C@H]2C[C@@](C)(OC)[C@@H](OC(=O)NCCOCCOCC#Cc3ccc4c(c3)c(=O)c(C(=O)O)cn4CC)[C@H](C)O2)[C@H](C)[C@@H](O[C@@H]2O[C@H](C)CC(N(C)C)[C@H]2O)[C@](C)(O)C[C@@H](C)CN(C)[C@H](C)[C@@H](O)[C@]1(C)O` (some centres unmarked) [Example 3, 4″-(2-{2-[3-(3-Carboxy-1-ethyl-4-oxo-1,4-dihydro-quinolin-6-yl)-prop-2-ynyloxy]-ethoxy}-ethylcarbamoyl)-azithromycin]: the MIC with S. pneumoniae 0541 is ≤ 0.125 µg/mL; in the assay on S. pyogenes 0542 it was ≤ 0.125 µg/mL; against E. faecalis ATCC 0004, ≤ 0.125 µg/mL; in assay [3], ≤ 0.125 µg/mL; with M. catarrhalis ATCC 0324, ≤ 0.5 µg/mL; in the assay on H. influenzae ATCC 0529 it was ≤ 0.125 µg/mL.

On to `CC[C@H]1OC(=O)[C@H](C)[C@@H](O[C@H]2C[C@@](C)(OC)[C@@H](OC(=O)NCCOCCOCCCc3ccc4c(c3)c(=O)c(C(=O)O)cn4CC)[C@H](C)O2)[C@H](C)[C@@H](O[C@@H]2O[C@H](C)CC(N(C)C)[C@H]2O)[C@](C)(O)C[C@@H](C)CN(C)[C@H](C)[C@@H](O)[C@]1(C)O` (some centres unmarked) [Example 4, 4,1-(2-{2-[3-(3-Carboxy-1-ethyl-4-oxo-1,4-dihydro-quinolin-6-yl)-propoxy]-ethoxy}-ethylcarbamoyl)-azithromycin], for which the MIC against S. pneumoniae 0541 is ≤ 0.125 µg/mL; in the assay on S. pyogenes 0542, ≤ 0.125 µg/mL; in the assay with E. faecalis ATCC 0004 it was ≤ 0.125 µg/mL; in assay [3] it was ≤ 0.125 µg/mL; in the assay on M. catarrhalis ATCC 0324 it was ≤ 0.5 µg/mL; against H. influenzae ATCC 0529, ≤ 0.125 µg/mL.
